Experiment [1] concerns the target T1, Heat shock 70 kDa protein 1A (Homo sapiens, UniProt P0DMV8). Nature of the experiment: small-molecule inhibition of Hsp70 – biochemical, TR-FRET (AID 786). (TR-FRET usually uses a lanthanide donor and a delayed reading to cut background.)
Experiment [2] has as its target T1, Heat shock 70 kDa protein 1A. Nature of the experiment: small molecules displacing fluorescent ligand from Hsp70 – biochemical, fluorescence polarization, primary screen (AID 583). On the technique in general: In fluorescence polarisation assays a small probe gives low polarisation when free and higher when bound to something large.
For experiment [3], the target named is Mothers against decapentaplegic homolog 3 (Homo sapiens, UniProt P84022). In words: blockers of Smad3 complex formation in lysate – cell lysate, secondary confirmation, chemiluminescent ELISA, HEK293 lysate, dose response (AID 1058). The class given is functional.
Experiment [4] can be described thus: antiviral protection against BTV-induced cell death – arbovirus, BSR cells, confirmation (AID 1250).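 Also: protection from viral cytopathic effect measured as cell viability by ATP luminescence.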 It is filed as functional.
Experiment [5] addresses Neuropeptide Y receptor type 2 (Homo sapiens, UniProt P49146). In words: Fluorescence-based cell-based high-throughput dose response assay for agonists of NPY-Y2. [Related pubchem assays: 1703 (Screening assay (CNGC inhibitors).), 1359 (Screening assay (NPY-Y2 potentiators or agonists).), 1304 (Screening assay (NPY-Y1 potentiators or agonists).), 1710 (Screening assay (NPY-Y2 agonists).), 1791 (Summary AID.)]. It is filed as functional.

Experiment [6] has as its target Neuropeptide Y receptor type 1 (Homo sapiens, UniProt P25929). Nature of the experiment: Fluorescence-based counterscreen for agonists of NPY-Y2: cell-based high-throughput dose response assay for agonists of NPY-Y1. The class given is functional.
Experiment [7] is described as follows: NIH3T3 cell viability loss – ATP luminescence, mouse fibroblasts, counter-screen, dose response (AID 2010).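 Also: cells exposed to compound for about 90 hours before reading.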 The class given is functional, cell-based. On the technique in general: Counterscreens check selectivity or assay interference.
Experiment [8] in a line: Trypanosoma cruzi growth suppression in host cells – NIH3T3 host cells, beta-gal luminescence, confirmation (AID 2044).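 Also: intracellular parasites grown in NIH/3T3 mouse fibroblasts as host cells; luminescent beta-galactosidase reporter signal from transgenic T. cruzi replicating inside host cells; inhibitors lower the luminescence signal.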 It is filed as functional, cell-based.
The subject of another experiment is HEK293. In words: Fluorescence-based counterscreen for potentiators or agonists of NPY-Y2: cell-based high-throughput dose response assay to identify inhibitors of cyclic nucleotide gated ion channel (CNGC) activity. In this assay, the parental HEK293 cell line transfected with a cyclic-nucleotide gated ion channel (CNGC)-based cAMP sensor is used to measure inhibition of isoproterenol-induced CNGC activity by test compound. It is filed as functional. To be noted: Homo sapiens.

The subject of the next experiment is HeLa. Nature of the experiment: Cytotoxicity counterscreen assay for transcriptional activators of heat shock protein 70 (Hsp70). [Related pubchem assays: 1203, 1252 ]. The class given is functional. Particulars: Homo sapiens.
Experiment [9] addresses Sphingosine 1-phosphate receptor 1 (Homo sapiens, UniProt P21453). It is filed as functional.
The target in experiment [10] is Sphingosine 1-phosphate receptor 4 (Homo sapiens, UniProt O95977). Nature of the experiment: Fluorescence dose response cell-based high throughput screening assay for antagonists of the Sphingosine 1-Phosphate Receptor 4 (S1P4). [Related pubchem assays: 1524 (Confirmation in triplicates.), 1510 (Primary screen.)]. It is filed as functional.
For experiment [11], the target named is T2, Microphthalmia-associated transcription factor (Homo sapiens, UniProt O75030).
T2 sequence (O75030 whole entry): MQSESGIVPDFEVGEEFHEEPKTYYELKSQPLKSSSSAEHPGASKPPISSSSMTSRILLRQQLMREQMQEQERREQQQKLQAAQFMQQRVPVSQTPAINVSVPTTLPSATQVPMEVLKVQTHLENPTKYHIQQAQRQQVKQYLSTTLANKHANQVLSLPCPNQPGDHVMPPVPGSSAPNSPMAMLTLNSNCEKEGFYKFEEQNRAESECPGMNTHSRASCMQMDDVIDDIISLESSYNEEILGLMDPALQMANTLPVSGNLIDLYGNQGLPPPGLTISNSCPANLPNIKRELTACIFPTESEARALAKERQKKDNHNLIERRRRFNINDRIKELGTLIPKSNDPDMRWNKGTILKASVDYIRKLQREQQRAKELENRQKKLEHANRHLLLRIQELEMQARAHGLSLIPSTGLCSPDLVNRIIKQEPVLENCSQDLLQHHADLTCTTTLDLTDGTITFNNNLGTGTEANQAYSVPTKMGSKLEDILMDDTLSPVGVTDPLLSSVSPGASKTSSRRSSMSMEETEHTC
In words: reducers of TRPM1 reporter luminescence, concentration series – cell-based, SK-MEL-5, cherry-picked, set 3, MITF inhibitor project, dose response (AID 493073).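 Also: SK-MEL-5 melanoma cells with luciferase driven by the MITF target TRPM1 promoter.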 The class given is functional.

Another experiment addresses Paired box protein Pax-8 (Homo sapiens, UniProt Q06710). Nature of the experiment: PAX8 transcriptional activity inhibition in RMG-I – RMG-I cells, luciferase, cherry-pick, dose response (AID 687027).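 Also: luciferase reporter driven by Pax8 target thyroperoxidase promoter measured by SteadyGlo luminescence.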 It is filed as functional, cell-based.
In experiment [12] the target is T3, Heat shock factor protein 1 (Mus musculus, UniProt P38532).
T3 sequence (P38532 whole entry): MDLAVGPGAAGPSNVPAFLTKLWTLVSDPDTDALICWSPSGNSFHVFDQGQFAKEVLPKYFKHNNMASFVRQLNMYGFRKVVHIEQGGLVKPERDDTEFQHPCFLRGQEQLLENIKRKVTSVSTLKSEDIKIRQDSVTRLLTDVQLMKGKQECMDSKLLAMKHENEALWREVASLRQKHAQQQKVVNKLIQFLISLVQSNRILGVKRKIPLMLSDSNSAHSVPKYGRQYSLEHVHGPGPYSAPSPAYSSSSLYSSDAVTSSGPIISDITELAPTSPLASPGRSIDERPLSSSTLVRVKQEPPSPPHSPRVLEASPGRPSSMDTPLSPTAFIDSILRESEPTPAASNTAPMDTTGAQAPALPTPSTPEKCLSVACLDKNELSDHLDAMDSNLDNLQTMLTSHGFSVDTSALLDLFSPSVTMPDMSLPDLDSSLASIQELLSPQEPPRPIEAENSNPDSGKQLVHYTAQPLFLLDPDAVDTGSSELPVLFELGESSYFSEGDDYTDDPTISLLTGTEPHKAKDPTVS
Nature of the experiment: enhancement of HSF1-driven luciferase signal – cell-based, NIH3T3, luminescence, dose retest, confirmation (AID 435004).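 Also: stress induced by proteasome inhibitor MG132 added 30 min after compound; luciferase reporter driven by HSF1 response element in NIH3T3 cells; actives raise luminescence as potentiators of the MG132 stress response.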 It is filed as functional.

Experiment [13] is described as follows: A Cell Based Assay for the Identification of Probe candidate Compounds with Anti- Venezuelan Equine Encephalitis virus. [Related pubchem assays: 2409, 2419, 1621, 2238, 2405, 2024, 2065, 2402, 2414, 1635, 1650, 2244 ]. It is filed as functional.
The target of a further experiment is Kallikrein-7 (Homo sapiens, UniProt P49862). Nature of the experiment: Fluorescence Intensity-based biochemical primary high throughput dose response assay to identify activators of kallikrein-7 (K7) zymogen.
The next experiment deals with Vero. Nature of the experiment: Vero cell viability after compound exposure – synthesized analogs, set II, cytotoxicity control for West Nile virus antiviral project, SAR follow-up (AID 2402). It is filed as functional. Particulars: Chlorocebus sabaeus.
The next experiment has as its target T4, Estrogen receptor (Homo sapiens, UniProt P03372).
T4 sequence (P03372 whole entry): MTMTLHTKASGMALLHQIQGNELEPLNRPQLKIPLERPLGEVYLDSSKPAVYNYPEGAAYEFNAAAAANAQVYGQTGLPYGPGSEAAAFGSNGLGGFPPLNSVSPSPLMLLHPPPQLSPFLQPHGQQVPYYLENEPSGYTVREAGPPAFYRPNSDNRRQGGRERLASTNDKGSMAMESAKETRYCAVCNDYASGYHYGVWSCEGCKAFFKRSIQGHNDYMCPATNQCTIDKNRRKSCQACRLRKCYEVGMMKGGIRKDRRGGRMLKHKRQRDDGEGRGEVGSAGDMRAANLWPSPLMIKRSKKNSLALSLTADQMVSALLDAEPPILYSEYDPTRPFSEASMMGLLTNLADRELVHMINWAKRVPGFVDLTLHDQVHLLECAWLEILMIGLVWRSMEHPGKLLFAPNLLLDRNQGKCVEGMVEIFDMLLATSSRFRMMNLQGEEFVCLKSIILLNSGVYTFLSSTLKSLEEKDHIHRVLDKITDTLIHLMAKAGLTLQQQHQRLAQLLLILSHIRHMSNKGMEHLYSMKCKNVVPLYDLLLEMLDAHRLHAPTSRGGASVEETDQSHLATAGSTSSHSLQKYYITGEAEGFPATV
In words: blockers of SRC-3 recruitment to ERα – biochemical, ELISA, streptavidin-HRP readout, orthogonal assay, confirmation (AID 1079).

A short description of experiment [14]: Luminescence Cell-Based Dose Retest to Confirm Inhibitors of Cancer Stem Cells. [Related pubchem assays (depositor defined):AID2717, AID2721]. Particulars: Homo sapiens. The class given is functional.
The next experiment deals with INS1. Nature of the experiment: INS-1E survival protection against cytokine death – cell-based, luminescence, retest, dose response (AID 449756).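 Also: cell death triggered by IL-1 beta plus TNF-alpha plus IFN-gamma mixture; protective hits raise ATP signal compared with cytokine alone wells.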 It is filed as functional. Particulars: Rattus norvegicus.
Experiment [15] in a line: blockers of HIV-1 ZM109 envelope-driven cell-cell fusion – HeLa effector, CEM target cells, luciferase, cherry-pick, dose response (AID 652058).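 Also: luciferase signal from HIV-1 Env mediated cell-cell fusion of effector and target cells.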 It is filed as functional, cell-based.
Experiment [16] can be described thus: Luminescence-based counterscreen assay for KLF5 inhibitors: dose response cell-based high throughput screening assay to identify cytotoxic compounds using the IEC-6 intestinal epithelial cell line. [Related pubchem assays: 1700 (Primary screen.), 1834 (Confirmation screen.), 1858 (Summary AID.), 1905 (Counterscreen.)]. The class given is functional.
The target in another experiment is Exodeoxyribonuclease V (Escherichia coli (strain K12), UniProt P04993+P07648+P08394). In words: RecBCD inhibition via phage-restricted bacterial growth – absorbance, V66 E. coli, mutant T4 phage, counter-screen for AddAB inhibitor project, dose response (AID 492957). It is filed as functional, cell-based, Escherichia coli str. K-12 substr. MG1655.
A short description of experiment [17]: Counterscreen for AddAB inhibitors: absorbance-based bacterial cell-based high throughput dose response assay for inhibitors of bacterial viability. [Related pubchem assays (depositor defined):AID435030, AID449728, AID449731, AID488942, AID488955, AID488956]. The class given is functional.
Experiment [18] can be described thus: HIV-1 AD8 envelope cell-cell fusion blockers – cherry-pick, dose response (AID 652062).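 Also: luciferase signal from cell-cell fusion driven by HIV-1 clade B AD8 Env; potency is for inhibitors of fusion seen as a drop in luminescence.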 It is filed as functional, cell-based.
A short description of experiment [19]: blockers of HIV-1 envelope-mediated cell-cell fusion – cherry-pick, dose response (AID 652057). The class given is functional, cell-based.
The nature of experiment [20]: viability loss in CEM21 cells – cell-based, CellTiter-Glo luminescence, cherry-picked, cytotoxicity control for viral fusion inhibitor project, dose response (AID 652042).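 Also: potency for signal decrease meaning cytotoxicity.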 It is filed as functional.
Experiment [21] in a line: off-target signal loss in HeLa-CEM21 co-culture – HeLa F-luc CTL cells, cherry-picked, counter-screen for HIV-1 Env fusion inhibitor project, dose response (AID 652040).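 Also: potency for signal decrease marking cytotoxic or nonspecific inhibition.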 The class given is functional, cell-based.
For experiment [22], the target named is Heat shock protein HSP 90-alpha (Homo sapiens, UniProt P07900). The class given is functional, organism-based.

Here are results for eight compounds from ChEMBL document CHEMBL1201862, “PubChem BioAssay data set” (2004).

Active and inactive are the calls of the source.

What is called IC50 is the concentration that inhibits the measured activity by half. In general, EC50 refers to the concentration giving half of the maximal effect. What is called CC50 is the concentration giving 50% cytotoxicity. Usually AC50 stands for the concentration at which the activity in the assay is half-maximal.

T1 sequence (P0DMV8 whole entry): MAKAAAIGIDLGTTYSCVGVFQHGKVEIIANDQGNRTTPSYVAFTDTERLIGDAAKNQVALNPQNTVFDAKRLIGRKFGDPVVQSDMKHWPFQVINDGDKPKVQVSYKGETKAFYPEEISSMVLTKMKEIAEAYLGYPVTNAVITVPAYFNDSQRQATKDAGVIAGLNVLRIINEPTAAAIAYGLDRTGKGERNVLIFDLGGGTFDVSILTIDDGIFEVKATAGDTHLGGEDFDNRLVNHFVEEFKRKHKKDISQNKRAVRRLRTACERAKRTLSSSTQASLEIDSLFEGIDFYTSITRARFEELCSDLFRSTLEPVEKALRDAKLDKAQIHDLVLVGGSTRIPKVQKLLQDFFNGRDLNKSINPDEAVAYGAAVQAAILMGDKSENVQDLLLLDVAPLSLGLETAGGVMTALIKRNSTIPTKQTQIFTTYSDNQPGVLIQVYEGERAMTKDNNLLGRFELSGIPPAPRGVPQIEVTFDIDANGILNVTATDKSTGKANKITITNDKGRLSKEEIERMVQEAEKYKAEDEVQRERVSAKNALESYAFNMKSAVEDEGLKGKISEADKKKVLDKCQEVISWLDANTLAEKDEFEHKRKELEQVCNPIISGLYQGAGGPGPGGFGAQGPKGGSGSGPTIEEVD
Neuropeptide Y receptor type 2, sequence (P49146 whole entry): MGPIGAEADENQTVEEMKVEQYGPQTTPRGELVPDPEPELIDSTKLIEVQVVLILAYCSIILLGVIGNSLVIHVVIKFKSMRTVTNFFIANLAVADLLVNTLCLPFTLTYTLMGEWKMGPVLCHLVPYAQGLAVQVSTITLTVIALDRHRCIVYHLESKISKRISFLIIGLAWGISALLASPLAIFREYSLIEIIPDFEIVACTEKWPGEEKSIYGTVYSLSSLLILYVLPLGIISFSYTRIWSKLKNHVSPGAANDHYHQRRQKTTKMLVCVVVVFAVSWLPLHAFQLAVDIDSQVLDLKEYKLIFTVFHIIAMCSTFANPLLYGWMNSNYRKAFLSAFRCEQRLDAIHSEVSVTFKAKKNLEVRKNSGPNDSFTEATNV
Exodeoxyribonuclease V, sequence (P04993 whole entry): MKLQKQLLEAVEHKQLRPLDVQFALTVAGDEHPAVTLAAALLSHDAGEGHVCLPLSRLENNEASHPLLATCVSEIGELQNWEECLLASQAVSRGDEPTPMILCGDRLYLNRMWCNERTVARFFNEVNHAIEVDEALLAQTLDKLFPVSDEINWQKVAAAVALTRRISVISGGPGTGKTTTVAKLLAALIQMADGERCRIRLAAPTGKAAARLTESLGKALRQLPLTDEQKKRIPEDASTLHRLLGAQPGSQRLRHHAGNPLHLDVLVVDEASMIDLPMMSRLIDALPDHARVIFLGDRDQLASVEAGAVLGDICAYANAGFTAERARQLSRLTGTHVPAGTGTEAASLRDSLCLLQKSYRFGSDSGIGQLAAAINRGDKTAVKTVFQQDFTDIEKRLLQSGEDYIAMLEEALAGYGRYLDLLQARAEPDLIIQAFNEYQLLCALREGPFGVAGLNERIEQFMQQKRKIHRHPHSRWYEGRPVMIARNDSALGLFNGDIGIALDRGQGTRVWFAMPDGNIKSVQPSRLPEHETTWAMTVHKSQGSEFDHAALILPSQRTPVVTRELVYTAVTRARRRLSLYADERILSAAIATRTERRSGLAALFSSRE
Exodeoxyribonuclease V, sequence (P07648 whole entry): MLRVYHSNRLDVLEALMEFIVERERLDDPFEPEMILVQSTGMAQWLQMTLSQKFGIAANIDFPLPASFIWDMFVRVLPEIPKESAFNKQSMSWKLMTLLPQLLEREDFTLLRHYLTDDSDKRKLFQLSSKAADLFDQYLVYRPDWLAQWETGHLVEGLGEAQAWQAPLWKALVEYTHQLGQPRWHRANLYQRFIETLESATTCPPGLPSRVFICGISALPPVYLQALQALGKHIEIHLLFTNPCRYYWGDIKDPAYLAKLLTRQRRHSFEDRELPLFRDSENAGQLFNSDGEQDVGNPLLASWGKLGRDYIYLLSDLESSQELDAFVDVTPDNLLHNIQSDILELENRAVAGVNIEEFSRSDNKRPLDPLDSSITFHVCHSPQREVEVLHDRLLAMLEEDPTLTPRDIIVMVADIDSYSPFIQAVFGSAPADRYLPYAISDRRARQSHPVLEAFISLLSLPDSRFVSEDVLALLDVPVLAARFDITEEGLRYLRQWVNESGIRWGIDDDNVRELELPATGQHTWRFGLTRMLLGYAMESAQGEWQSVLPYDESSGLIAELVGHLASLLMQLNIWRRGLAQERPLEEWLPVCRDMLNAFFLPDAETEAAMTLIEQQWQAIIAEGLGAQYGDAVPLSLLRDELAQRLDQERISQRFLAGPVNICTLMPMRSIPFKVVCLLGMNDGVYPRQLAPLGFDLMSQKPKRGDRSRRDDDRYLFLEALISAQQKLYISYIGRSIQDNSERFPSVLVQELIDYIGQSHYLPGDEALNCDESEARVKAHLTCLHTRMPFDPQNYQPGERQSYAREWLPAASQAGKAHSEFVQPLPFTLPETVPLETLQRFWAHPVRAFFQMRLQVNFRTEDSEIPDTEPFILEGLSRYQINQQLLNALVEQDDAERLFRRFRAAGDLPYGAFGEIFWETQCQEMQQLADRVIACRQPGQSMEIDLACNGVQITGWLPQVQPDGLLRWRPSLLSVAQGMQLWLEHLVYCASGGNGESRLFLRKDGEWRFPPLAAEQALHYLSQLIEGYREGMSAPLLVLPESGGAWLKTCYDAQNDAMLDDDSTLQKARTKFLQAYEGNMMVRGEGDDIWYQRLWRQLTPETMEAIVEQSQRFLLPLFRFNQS
Exodeoxyribonuclease V, sequence (P08394 whole entry): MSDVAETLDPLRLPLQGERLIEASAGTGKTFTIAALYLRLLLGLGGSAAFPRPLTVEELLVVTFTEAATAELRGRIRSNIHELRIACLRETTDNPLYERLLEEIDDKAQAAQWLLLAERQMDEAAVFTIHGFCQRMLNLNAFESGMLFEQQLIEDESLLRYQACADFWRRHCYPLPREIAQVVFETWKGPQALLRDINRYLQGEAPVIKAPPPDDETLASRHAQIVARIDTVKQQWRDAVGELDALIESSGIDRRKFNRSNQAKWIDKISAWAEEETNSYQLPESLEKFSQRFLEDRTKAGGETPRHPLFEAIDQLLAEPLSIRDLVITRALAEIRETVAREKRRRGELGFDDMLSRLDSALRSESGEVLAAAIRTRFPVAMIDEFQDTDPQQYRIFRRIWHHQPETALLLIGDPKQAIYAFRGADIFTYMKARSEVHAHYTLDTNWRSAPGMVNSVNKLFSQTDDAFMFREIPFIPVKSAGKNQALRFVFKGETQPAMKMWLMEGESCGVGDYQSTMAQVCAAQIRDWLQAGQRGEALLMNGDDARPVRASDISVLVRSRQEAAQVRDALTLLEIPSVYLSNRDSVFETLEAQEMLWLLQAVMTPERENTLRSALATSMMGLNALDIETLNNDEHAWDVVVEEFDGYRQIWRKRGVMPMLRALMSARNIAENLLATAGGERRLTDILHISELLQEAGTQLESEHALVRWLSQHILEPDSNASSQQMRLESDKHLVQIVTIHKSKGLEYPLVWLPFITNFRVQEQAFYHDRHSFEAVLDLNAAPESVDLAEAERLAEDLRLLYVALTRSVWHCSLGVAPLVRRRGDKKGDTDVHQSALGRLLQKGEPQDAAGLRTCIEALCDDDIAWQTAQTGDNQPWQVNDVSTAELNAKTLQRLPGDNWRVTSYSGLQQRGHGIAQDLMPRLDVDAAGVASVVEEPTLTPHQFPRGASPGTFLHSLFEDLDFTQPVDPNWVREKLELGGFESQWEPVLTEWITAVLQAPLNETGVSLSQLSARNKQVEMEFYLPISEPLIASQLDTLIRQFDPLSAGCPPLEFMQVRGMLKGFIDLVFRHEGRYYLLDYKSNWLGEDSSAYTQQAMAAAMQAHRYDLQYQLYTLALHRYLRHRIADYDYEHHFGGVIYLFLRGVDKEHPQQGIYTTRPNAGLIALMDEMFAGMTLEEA
Paired box protein Pax-8, sequence (Q06710 whole entry): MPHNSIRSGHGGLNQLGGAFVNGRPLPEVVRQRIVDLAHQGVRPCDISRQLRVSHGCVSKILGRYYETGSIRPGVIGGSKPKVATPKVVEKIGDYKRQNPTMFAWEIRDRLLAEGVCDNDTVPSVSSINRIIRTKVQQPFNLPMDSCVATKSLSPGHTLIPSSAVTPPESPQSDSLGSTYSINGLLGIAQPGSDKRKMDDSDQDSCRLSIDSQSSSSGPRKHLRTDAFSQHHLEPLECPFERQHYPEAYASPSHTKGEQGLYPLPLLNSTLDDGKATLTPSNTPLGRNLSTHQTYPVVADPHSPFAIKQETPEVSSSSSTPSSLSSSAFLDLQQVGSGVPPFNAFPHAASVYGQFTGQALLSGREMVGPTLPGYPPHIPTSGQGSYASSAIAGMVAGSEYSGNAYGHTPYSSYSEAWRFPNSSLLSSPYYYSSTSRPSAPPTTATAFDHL
Mothers against decapentaplegic homolog 3, sequence (P84022 whole entry): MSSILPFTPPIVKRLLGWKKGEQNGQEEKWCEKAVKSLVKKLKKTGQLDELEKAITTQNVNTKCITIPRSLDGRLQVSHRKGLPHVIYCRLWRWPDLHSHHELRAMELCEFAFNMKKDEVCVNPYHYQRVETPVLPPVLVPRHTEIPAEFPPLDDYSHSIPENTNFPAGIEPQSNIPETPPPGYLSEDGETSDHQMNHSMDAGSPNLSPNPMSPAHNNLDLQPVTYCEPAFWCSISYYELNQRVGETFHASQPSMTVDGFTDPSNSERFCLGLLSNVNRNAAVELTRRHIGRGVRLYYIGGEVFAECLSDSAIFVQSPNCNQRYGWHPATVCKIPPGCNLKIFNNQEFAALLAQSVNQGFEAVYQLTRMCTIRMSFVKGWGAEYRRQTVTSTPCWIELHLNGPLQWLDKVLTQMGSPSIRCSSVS

Regarding `CC(=O)Nc1cc2c(cc1C(C)=O)OCCO2`, the IC50 in [1] and in experiment [2] was > 100 µM (not active) throughout.
`COc1cc(OC)c(C(c2cc3c(cc2O)OCO3)N2CCOCC2)c(OC)c1` (stereo not given): the IC50 in experiment [3] was > 40 µM (not active).
Regarding `Cc1ccc2cc(C3CC(c4ccco4)=NN3S(=O)(=O)c3ccccc3)c(Cl)nc2c1` (stereo not given), the IC50 in [4] is 40.7 µM (active).
`Nc1c(-c2ccccc2)c(CSc2nc3ccccc3[nH]2)nn1-c1ccc(Cl)cc1`: the EC50 is 6.65 µM (active) in experiment [5]; 7.41 µM (active) in [6]; 12.2 µM (active) in experiment [7]; 0.595 µM (active) in experiment [8]; > 35.4 µM (not active) with HEK293.
Regarding `O=C(Nc1ccc(N2CCN(C(=O)c3ccccc3)CC2)cc1)c1ccc([N+](=O)[O-])o1`, the CC50 in the experiment with HeLa is 7.65 µM (active). In addition, the IC50 in experiment [9] is 12.7 µM (not active); in experiment [10], 1.64 µM (active). Further, the AC50 in [11] was 17.9 µM (active); at Paired box protein Pax-8, 3.92 µM (active). Besides, in [12], the EC50 is 8.79 µM (active).
Turning to `OC1c2cc(Cl)cc(Cl)c2N=C2CCCN21` (stereo not given), the IC50 in experiment [13] was < 0.26 µM (active). Moreover, the EC50 at Kallikrein-7 was 48.5 µM (inactive). Besides, the CC50 in the experiment on Vero is > 200 µM (active).
`O=C(CCCCCn1c(=S)[nH]c2ccccc2c1=O)N1CCC(N(Cc2ccccc2)c2ccccc2)CC1`: the IC50 against Estrogen receptor is 0.12 µM (not active).
`COc1cccc(/C=N/Nc2ncc(C(F)(F)F)cc2Cl)c1O`: the AC50 was 0.469 µM (active) in [14]; 0.584 µM (active) in the experiment with INS1; 1.45 µM (active) in [15]; 7.04 µM (active) in [18]; 1.37 µM (active) in experiment [19]; 2.15 µM (active) in experiment [20]. The AC50 in experiment [21] was 17.4 µM (active); in experiment [22] it was 5.59 µM (active). The IC50 was 26.8 µM (not active) in experiment [16], > 119 µM (inactive) on Exodeoxyribonuclease V and 98.2 µM (inactive) in experiment [17].
